Laboratory results as given in paper PMC6325563 (eNeuro, 2019).

Assays:
Experiment in all cases: two-electrode voltage clamp, Xenopus oocytes
Format in all cases: cell-based
[1] = biological target: T1, (α4)3(β2)2 nAChR (low sensitivity) (Rattus norvegicus, UniProt P09483+P12390, P09483:L285I); details: read-out: IC50 (μM (-)-menthol) ± SEM
T1 construct: gene Chrna4; subunits in pGEMhe, mRNA alpha4:beta2 10:1 injected in Xenopus laevis oocytes; pentamer
Source text: (§1) two-electrode voltage clamp, Xenopus oocytes on (α4)3(β2)2 nAChR (low sensitivity)

[2] = biological target: T2, (α4)3(β2)2 nAChR (low sensitivity) (Rattus norvegicus, UniProt P09483+P12390, P09483:S286L); details: read-out: IC50 (μM (-)-menthol) ± SEM
T2 construct: gene Chrna4; subunits in pGEMhe, mRNA alpha4:beta2 10:1 injected in Xenopus laevis oocytes; pentamer
T2 sequence (P09483 31-630 S286L): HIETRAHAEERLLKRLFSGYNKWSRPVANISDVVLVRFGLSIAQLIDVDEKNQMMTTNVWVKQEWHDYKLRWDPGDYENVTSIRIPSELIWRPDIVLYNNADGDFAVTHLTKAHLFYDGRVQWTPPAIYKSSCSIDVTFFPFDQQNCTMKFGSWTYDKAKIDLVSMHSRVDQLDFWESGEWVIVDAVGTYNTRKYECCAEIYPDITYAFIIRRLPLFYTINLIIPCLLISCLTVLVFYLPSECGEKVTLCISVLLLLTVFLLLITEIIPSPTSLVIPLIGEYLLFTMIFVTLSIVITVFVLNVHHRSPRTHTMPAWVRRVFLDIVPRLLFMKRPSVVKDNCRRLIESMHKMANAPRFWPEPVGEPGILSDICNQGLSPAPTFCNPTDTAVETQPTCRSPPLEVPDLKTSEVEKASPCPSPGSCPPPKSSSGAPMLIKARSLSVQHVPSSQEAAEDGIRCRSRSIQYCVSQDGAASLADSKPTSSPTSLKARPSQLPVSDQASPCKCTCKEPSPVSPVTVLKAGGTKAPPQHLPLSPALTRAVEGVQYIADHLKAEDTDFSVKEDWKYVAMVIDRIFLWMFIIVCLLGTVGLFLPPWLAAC
T2 sequence (P12390 25-500): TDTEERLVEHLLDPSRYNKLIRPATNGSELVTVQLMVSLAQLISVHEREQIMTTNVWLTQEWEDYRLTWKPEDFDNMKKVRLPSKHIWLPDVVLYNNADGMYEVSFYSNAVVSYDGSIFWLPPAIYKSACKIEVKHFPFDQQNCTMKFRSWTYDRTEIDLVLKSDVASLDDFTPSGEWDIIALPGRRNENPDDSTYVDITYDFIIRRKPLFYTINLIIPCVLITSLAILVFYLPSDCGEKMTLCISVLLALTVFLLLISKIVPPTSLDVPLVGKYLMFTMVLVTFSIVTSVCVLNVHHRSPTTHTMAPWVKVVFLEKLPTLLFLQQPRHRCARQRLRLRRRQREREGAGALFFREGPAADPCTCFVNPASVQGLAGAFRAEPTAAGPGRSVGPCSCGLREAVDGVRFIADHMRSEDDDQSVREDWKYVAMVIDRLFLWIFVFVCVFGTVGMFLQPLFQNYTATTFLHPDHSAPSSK
Source text: as §1

[3] = biological target: T3, (α4)3(β2)2 nAChR (low sensitivity) (Rattus norvegicus, UniProt P09483+P12390)
T3 construct: gene Chrna4; subunits in pGEMhe, mRNA alpha4:beta2 10:1 injected in Xenopus laevis oocytes; pentamer
T3 sequence (P09483 31-630): as the sequence (P09483 31-630 S286L) above, with L256S counted along it
T3 sequence (P12390 25-500): as the sequence (P12390 25-500) above
Source text: as §1

[4] = biological target: T4, (α4)3(β2)2 nAChR (low sensitivity) (Rattus norvegicus, UniProt P09483+P12390, P09483:L285M); details: read-out: IC50 (μM (-)-menthol) ± SEM
T4 construct: gene Chrna4; subunits in pGEMhe, mRNA alpha4:beta2 10:1 injected in Xenopus laevis oocytes; pentamer
T4 sequence (P09483 31-630 L285M): as the sequence (P09483 31-630 S286L) above, with L255M, L256S counted along it
T4 sequence (P12390 25-500): as the sequence (P12390 25-500) above
Source text: as §1

α5[wt](α4[wt]β2[wt])2 = biological target: T5, α5[wt](α4[wt]β2[wt])2 (Rattus norvegicus, UniProt P09483+P12390); details: read-out: IC50 (μM (-)-menthol) ± SEM
T5 construct: gene Chrna4; Xenopus laevis oocytes; alpha5 in the auxiliary position of alpha4beta2
T5 sequence (P09483 31-630): as the sequence (P09483 31-630 S286L) above, with L256S counted along it
T5 sequence (P12390 25-500): as the sequence (P12390 25-500) above
T5 sequence (P20420 28-452 partner): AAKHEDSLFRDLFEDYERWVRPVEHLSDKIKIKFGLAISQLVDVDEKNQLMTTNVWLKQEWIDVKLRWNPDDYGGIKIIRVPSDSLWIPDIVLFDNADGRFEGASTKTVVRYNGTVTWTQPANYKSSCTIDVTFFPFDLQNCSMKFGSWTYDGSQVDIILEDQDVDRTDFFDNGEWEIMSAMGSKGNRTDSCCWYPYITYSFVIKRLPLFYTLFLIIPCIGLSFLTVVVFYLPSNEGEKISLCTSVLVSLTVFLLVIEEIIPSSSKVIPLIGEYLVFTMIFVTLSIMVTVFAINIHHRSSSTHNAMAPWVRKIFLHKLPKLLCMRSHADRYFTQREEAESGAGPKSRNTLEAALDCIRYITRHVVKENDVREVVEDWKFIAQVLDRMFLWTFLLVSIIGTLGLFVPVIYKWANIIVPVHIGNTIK
Source text: two-electrode voltage clamp, Xenopus oocytes on α5[wt](α4[wt]β2[wt])2

[5] = biological target: T6, (α4)2(β2)3 nAChR (high sensitivity) (Rattus norvegicus, UniProt P09483+P12390, P09483:L285I); details: read-out: IC50 (μM (-)-menthol) ± SEM
T6 construct: gene Chrna4; subunits in pGEMhe, mRNA alpha4:beta2 1:10 injected in Xenopus laevis oocytes; pentamer
T6 sequence (P09483 31-630 L285I): as the sequence (P09483 31-630 S286L) above, with L255I, L256S counted along it
T6 sequence (P12390 25-500): as the sequence (P12390 25-500) above
Source text: (§2) two-electrode voltage clamp, Xenopus oocytes on (α4)2(β2)3 nAChR (high sensitivity)

[6] = biological target: T7, (α4)2(β2)3 nAChR (high sensitivity) (Rattus norvegicus, UniProt P09483+P12390, P09483:L285Q); details: read-out: IC50 (μM (-)-menthol) ± SEM
T7 construct: gene Chrna4; subunits in pGEMhe, mRNA alpha4:beta2 1:10 injected in Xenopus laevis oocytes; pentamer
T7 sequence (P09483 31-630 L285Q): as the sequence (P09483 31-630 S286L) above, with L255Q, L256S counted along it
T7 sequence (P12390 25-500): as the sequence (P12390 25-500) above
Source text: as §2

[7] = biological target: T8, (α4)2(β2)3 nAChR (high sensitivity) (Rattus norvegicus, UniProt P09483+P12390, P09483:L285S); details: read-out: IC50 (μM (-)-menthol) ± SEM
T8 construct: gene Chrna4; subunits in pGEMhe, mRNA alpha4:beta2 1:10 injected in Xenopus laevis oocytes; pentamer
T8 sequence (P09483 31-630 L285S): as the sequence (P09483 31-630 S286L) above, with L255S, L256S counted along it
T8 sequence (P12390 25-500): as the sequence (P12390 25-500) above
Source text: as §2

[8] = biological target: T9, (α4)2(β2)3 nAChR (high sensitivity) (Rattus norvegicus, UniProt P09483+P12390)
T9 construct: gene Chrna4; subunits in pGEMhe, mRNA alpha4:beta2 1:10 injected in Xenopus laevis oocytes; pentamer
T9 sequence (P09483 31-630): as the sequence (P09483 31-630 S286L) above, with L256S counted along it
T9 sequence (P12390 25-500): as the sequence (P12390 25-500) above
Source text: as §2

[9] = biological target: T10, (α4)2(β2)3 nAChR (high sensitivity) (Rattus norvegicus, UniProt P09483+P12390, P09483:L285C); details: read-out: IC50 (μM (-)-menthol) ± SEM
T10 construct: gene Chrna4; subunits in pGEMhe, mRNA alpha4:beta2 1:10 injected in Xenopus laevis oocytes; pentamer
T10 sequence (P09483 31-630 L285C): as the sequence (P09483 31-630 S286L) above, with L255C, L256S counted along it
T10 sequence (P12390 25-500): as the sequence (P12390 25-500) above
Source text: as §2

[10] = biological target: T11, (α4)2(β2)3 nAChR (high sensitivity) (Rattus norvegicus, UniProt P09483+P12390, P09483:L285F); details: read-out: IC50 (μM (-)-menthol) ± SEM
T11 construct: gene Chrna4; subunits in pGEMhe, mRNA alpha4:beta2 1:10 injected in Xenopus laevis oocytes; pentamer
T11 sequence (P09483 31-630 L285F): as the sequence (P09483 31-630 S286L) above, with L255F, L256S counted along it
T11 sequence (P12390 25-500): as the sequence (P12390 25-500) above
Source text: as §2

[11] = biological target: T12, (α4)2(β2)3 nAChR (high sensitivity) (Rattus norvegicus, UniProt P09483+P12390, P09483:L285M); details: read-out: IC50 (μM (-)-menthol) ± SEM
T12 construct: gene Chrna4; subunits in pGEMhe, mRNA alpha4:beta2 1:10 injected in Xenopus laevis oocytes; pentamer
T12 sequence (P09483 31-630 L285M): as the sequence (P09483 31-630 S286L) above, with L255M, L256S counted along it
T12 sequence (P12390 25-500): as the sequence (P12390 25-500) above
Source text: as §2

[12] = biological target: T13, (α4)2(β2)3 nAChR (high sensitivity) (Rattus norvegicus, UniProt P09483+P12390, P09483:L285W); details: read-out: IC50 (μM (-)-menthol) ± SEM
T13 construct: gene Chrna4; subunits in pGEMhe, mRNA alpha4:beta2 1:10 injected in Xenopus laevis oocytes; pentamer
T13 sequence (P09483 31-630 L285W): as the sequence (P09483 31-630 S286L) above, with L255W, L256S counted along it
T13 sequence (P12390 25-500): as the sequence (P12390 25-500) above
Source text: as §2

T1 sequence (P09483 31-630 L285I): as the sequence (P09483 31-630 S286L) above, with L255I, L256S counted along it
T1 sequence (P12390 25-500): as the sequence (P12390 25-500) above

Row | SMILES | IC50 [1] [µM] | IC50 [2] [µM] | IC50 [3] [µM] | IC50 [4] [µM] | IC50 (α5[wt](α4[wt]β2[wt])2) [µM] | IC50 [5] [µM] | IC50 [6] [µM] | IC50 [7] [µM] | IC50 [8] [µM] | IC50 [9] [µM] | IC50 [10] [µM] | IC50 [11] [µM] | IC50 [12] [µM]
1 | CC(C)[C@@H]1CC[C@@H](C)C[C@H]1O [(−)-menthol] | 127 ± 29.1 | 29.4 ± 4.32 | 33.1 ± 1.83 | 39.2 ± 7.98 | 51 ± 9.06 | 97.3 ± 38.5 | 165 ± 28.1 | 514 ± 361 | 44.9 ± 1.62 | 306 ± 173 | 211 ± 75.6 | 26.6 ± 1.9 | 28.8 ± 3.26
2 | CC(C)[C@H]1CC[C@H](C)C[C@@H]1O [(+)-menthol] | – | – | 45.5 ± 2.03 | – | – | – | – | – | 48.3 ± 1.67 | – | – | – | –
